From PubChem BioAssay (NCI)
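How tested: cells in 96-well plates exposed to compound for 48 hours at five concentrations. GI50 is the concentration that inhibits growth by half. The concentration for full growth arrest is given as TGI.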

Assays:
Assay in all cases: growth of human tumour cells (NCI), 48 h
[1] = test system: MOLT-4 leukemia
[2] = test system: SN12C renal
[3] = test system: SW-620 colon
[4] = test system: BT-549 breast
[5] = test system: NCI/ADR-RES ovarian
[6] = test system: HCT-15 colon
[7] = test system: M14 melanoma
[8] = test system: NCI-H460 lung
[9] = test system: HCC-2998 colon
[10] = test system: A498 renal
[11] = test system: CAKI-1 renal
[12] = test system: SNB-75 CNS
[13] = test system: SK-MEL-28 melanoma
[14] = test system: SF-268 CNS
[15] = test system: LOX IMVI melanoma
[16] = test system: IGROV1 ovarian
[17] = test system: COLO 205 colon
[18] = test system: MALME-3M melanoma
[19] = test system: UACC-257 melanoma
[20] = test system: NCI-H226 lung
[21] = test system: UACC-62 melanoma
[22] = test system: SNB-19 CNS
[23] = test system: MDA-MB-231 breast
[24] = test system: NCI-H522 lung
[25] = test system: U251 CNS
[26] = test system: RXF 393 renal
[27] = test system: TK-10 renal
[28] = test system: EKVX NSCLC
[29] = test system: RPMI-8226 leukemia
[30] = test system: OVCAR-4 ovarian
[31] = test system: SK-OV-3 ovarian
[32] = test system: HOP-92 NSCLC
[33] = test system: T-47D breast
[34] = test system: SF-539 CNS
[35] = test system: SK-MEL-2 melanoma
[36] = test system: K-562 leukemia
[37] = test system: MDA-MB-435
[38] = test system: KM12 colon
[39] = test system: SF-295 CNS
[40] = test system: A549 NSCLC
[41] = test system: 786-0 renal
[42] = test system: MCF7 breast
[43] = test system: NCI-H23 lung
[44] = test system: HL-60(TB) leukemia
[45] = test system: SR leukemia
[46] = test system: PC-3 prostate
[47] = test system: HT29 colon
[48] = test system: CCRF-CEM leukemia
[49] = test system: HS 578T breast
[50] = test system: HCT-116 colon
[51] = test system: ACHN renal
[52] = test system: HOP-62 NSCLC
[53] = test system: OVCAR-8 ovarian
[54] = test system: OVCAR-5 ovarian
[55] = test system: DU-145 prostate
[56] = test system: SK-MEL-5 melanoma
[57] = test system: OVCAR-3 ovarian
[58] = test system: UO-31 renal

In the case of `O=C(N[C@H](c1ccc(Cl)c(Cl)c1)C1CNC1)c1ccc2cnccc2c1`, the GI50 [1] is reported as 1.41 µM, the TGI [1] is reported as 5.67 µM and the GI50 [2] is reported as 2.76 µM. The TGI [2] was 15.7 µM, the GI50 [3] was 2.57 µM and the TGI [3] was 15.2 µM. The GI50 [4] was 2.64 µM, the TGI [4] was 12 µM and the GI50 [5] was 15.6 µM. The TGI [5] was 30.2 µM, the GI50 [6] was 5.02 µM and the TGI [6] was 18.3 µM. It also gave a GI50 [7] of 4.18 µM, a TGI [7] of 16.7 µM and a GI50 [8] of 2.68 µM. The TGI [8] was 15.4 µM, the GI50 [9] was 2.06 µM and the TGI [9] was 6.06 µM. For the same compound, the GI50 [10] was 1.78 µM, the TGI [10] was 10.5 µM and the GI50 [11] was 1.84 µM. For the same compound, the TGI [11] was 10.7 µM, the GI50 [12] was 0.405 µM and the TGI [12] was 3.68 µM. It also gave a GI50 [13] of 5.5 µM, a TGI [13] of 18.6 µM and a GI50 [14] of 2.56 µM. For the same compound, the TGI [14] was 15.6 µM, the GI50 [15] was 3.42 µM and the TGI [15] was 13.9 µM. It also gave a GI50 [16] of 1.93 µM, a TGI [16] of 10.6 µM and a GI50 [17] of 2.96 µM. The TGI [17] was 11.5 µM, the GI50 [18] was 3.06 µM and the TGI [18] was 14.6 µM. For the same compound, the GI50 [19] was 5.18 µM, the TGI [19] was 18.6 µM and the GI50 [20] was 4.3 µM. For the same compound, the TGI [20] was 19.7 µM, the GI50 [21] was 5.39 µM and the TGI [21] was 19.1 µM. For the same compound, the GI50 [22] was 8.9 µM, the TGI [22] was 21.5 µM and the GI50 [23] was 3.36 µM. The TGI [23] was 15 µM, the GI50 [24] was 12.9 µM and the TGI [24] was 26.5 µM. It also gave a GI50 [25] of 4.62 µM, a TGI [25] of 17.8 µM and a GI50 [26] of 0.68 µM. For the same compound, the TGI [26] was 3.74 µM, the GI50 [27] was 1.73 µM and the TGI [27] was 10.7 µM. For the same compound, the GI50 [28] was 3.15 µM, the TGI [28] was 16.4 µM and the GI50 [29] was 3.9 µM. It also gave a TGI [29] of 14.1 µM, a GI50 [30] of 5.68 µM and a TGI [30] of 19.4 µM. For the same compound, the GI50 [31] was 3.26 µM, the TGI [31] was 13.1 µM and the GI50 [32] was 0.966 µM. It also gave a TGI [32] of 5.91 µM, a GI50 [33] of 2.29 µM and a TGI [33] of 13.5 µM. The GI50 [34] was 1.71 µM, the TGI [34] was 11.3 µM and the GI50 [35] was 10.2 µM. The TGI [35] was 22.4 µM, the GI50 [36] was 3.37 µM and the TGI [36] was 14 µM. For the same compound, the GI50 [37] was 2.84 µM, the TGI [37] was 11.8 µM and the GI50 [38] was 2.34 µM. It also gave a TGI [38] of 11.9 µM, a GI50 [39] of 3.04 µM and a TGI [39] of 14.5 µM. The GI50 [40] was 3.29 µM, the TGI [40] was 16.5 µM and the GI50 [41] was 1.78 µM. For the same compound, the TGI [41] was 11.5 µM, the GI50 [42] was 3.25 µM and the TGI [42] was 13.9 µM. For the same compound, the GI50 [43] was 5.83 µM, the TGI [43] was 19.6 µM and the GI50 [44] was 2.83 µM. The TGI [44] was 12.8 µM, the GI50 [45] was 2.11 µM and the TGI [45] was 10.8 µM. For the same compound, the GI50 [46] was 3.48 µM, the TGI [46] was 16.1 µM and the GI50 [47] was 3.24 µM. For the same compound, the TGI [47] was 14.4 µM, the GI50 [48] was 2.74 µM and the TGI [48] was 13.6 µM. It also gave a GI50 [49] of 1 µM, a TGI [49] of 4.71 µM and a GI50 [50] of 3.23 µM. For the same compound, the TGI [50] was 13.2 µM, the GI50 [51] was 6.11 µM and the TGI [51] was 18.9 µM. The GI50 [52] was 4.34 µM, the TGI [52] was 16.7 µM and the GI50 [53] was 10.4 µM. For the same compound, the TGI [53] was 23 µM, the GI50 [54] was 2.94 µM and the TGI [54] was 16.7 µM. It also gave a GI50 [55] of 8.52 µM, a TGI [55] of 21 µM and a GI50 [56] of 11.1 µM. It also gave a TGI [56] of 23.2 µM, a GI50 [57] of 11.5 µM and a TGI [57] of 23.9 µM.

Work on `O=S(=O)(NCCNc1nccc(-c2c(-c3cccc(O)c3)nc3sccn23)n1)c1ccc(F)cc1` yielded a GI50 [1] of 5.53 µM, a TGI [1] of 32 µM and a GI50 [2] of 4.26 µM. For the same compound, the TGI [2] was 44.9 µM, the GI50 [3] was 5.95 µM and the TGI [3] was 36.9 µM. It also gave a GI50 [4] of 5.32 µM, a TGI [4] of 30 µM and a GI50 [5] of 53 µM. It also gave a TGI [5] of over 100 µM, a GI50 [6] of 10.8 µM and a TGI [6] of 55.4 µM. The GI50 [7] was 0.568 µM, the TGI [7] was 16.6 µM and the GI50 [8] was 4.2 µM. For the same compound, the TGI [8] was 22.8 µM, the GI50 [9] was 10.2 µM and the TGI [9] was 25.7 µM. For the same compound, the GI50 [10] was 7.58 µM, the TGI [10] was 25.2 µM and the GI50 [11] was 3.69 µM. For the same compound, the TGI [11] was 40.5 µM, the GI50 [12] was 1.2 µM and the TGI [12] was 34.9 µM. The GI50 [13] was 0.66 µM, the TGI [13] was 24 µM and the GI50 [14] was 7.51 µM. For the same compound, the TGI [14] was 42.3 µM, the GI50 [15] was 4.11 µM and the TGI [15] was 20.1 µM. It also gave a GI50 [16] of 3.53 µM, a TGI [16] of 18.1 µM and a GI50 [17] of 0.779 µM. For the same compound, the TGI [17] was 11.5 µM, the GI50 [19] was 0.568 µM and the TGI [19] was 16.5 µM. It also gave a GI50 [20] of 7.03 µM, a TGI [20] of 45 µM and a GI50 [21] of 0.26 µM. The TGI [21] was 10.3 µM, the GI50 [22] was 16.5 µM and the TGI [22] was 75.3 µM. For the same compound, the GI50 [23] was 4.88 µM, the TGI [23] was 44.8 µM and the GI50 [24] was 6.44 µM. It also gave a TGI [24] of 27.1 µM, a GI50 [25] of 7.48 µM and a TGI [25] of 49.3 µM. The GI50 [26] was 2.44 µM, the TGI [26] was 12.5 µM and the GI50 [27] was 11.9 µM. It also gave a TGI [27] of 42.1 µM, a GI50 [29] of 4.26 µM and a TGI [29] of 22.7 µM. The GI50 [30] was 6.5 µM, the TGI [30] was 41.3 µM and the GI50 [31] was 5.37 µM. It also gave a TGI [31] of 59 µM, a GI50 [32] of 11.5 µM and a TGI [32] of 57 µM. The GI50 [33] was 6.54 µM, the TGI [33] was 25 µM and the GI50 [34] was 5.23 µM. For the same compound, the TGI [34] was 24.6 µM, the GI50 [35] was 4.49 µM and the TGI [35] was 20.2 µM. For the same compound, the GI50 [36] was 3.88 µM, the TGI [36] was over 100 µM and the GI50 [37] was 0.939 µM. The TGI [37] was 11.6 µM, the GI50 [38] was 4.36 µM and the TGI [38] was 16.2 µM. For the same compound, the GI50 [40] was 3.51 µM, the TGI [40] was 36.1 µM and the GI50 [41] was 5.35 µM. For the same compound, the TGI [41] was 41.8 µM, the GI50 [58] was 4.32 µM and the TGI [58] was 21 µM. For the same compound, the GI50 [42] was 2.39 µM, the TGI [42] was 14.9 µM and the GI50 [43] was 11.1 µM. It also gave a TGI [43] of 38.2 µM, a GI50 [45] of 2.65 µM and a TGI [45] of 57.3 µM. For the same compound, the GI50 [46] was 5.66 µM, the TGI [46] was 63.5 µM and the GI50 [47] was 2.66 µM. It also gave a TGI [47] of 32.4 µM, a GI50 [48] of 2.8 µM and a TGI [48] of over 100 µM. The GI50 [49] was 2.93 µM, the TGI [49] was 11.7 µM and the GI50 [50] was 3.26 µM. The TGI [50] was 27.1 µM, the GI50 [51] was 3.53 µM and the TGI [51] was 28.4 µM. For the same compound, the GI50 [52] was 13.8 µM, the TGI [52] was 56.5 µM and the GI50 [53] was 4.61 µM. It also gave a TGI [53] of 39.3 µM, a GI50 [54] of 17.8 µM and a TGI [54] of 64.6 µM. It also gave a GI50 [55] of 8.94 µM, a TGI [55] of 38.7 µM and a GI50 [56] of 1.61 µM. The TGI [56] was 3.98 µM, the GI50 [57] was 8.53 µM and the TGI [57] was 34.5 µM.
